Assay results taken from US20100240674A1 (priority 2007, published 2010).
Structures can show the parent of a compound that is named as a salt.

Tests used:
NPC mice = assay: Hanging Test (locomotor activity); assay type: in vivo; conditions: 50 mg/Kg daily intraperitoneally for 28 days, vs saline
Text: To test locomotor activity, the Hanging Test that has been validated for these mice was used (Voikar et al., 2002). For this test a score from 0 to 5 was assigned to the mice based on their motor capabilities. To determine the score, the animal is observed during 30 seconds, a value is assigned according to the following scale: 0, if it falls before 10 seconds; 1, if it hangs from the bar with its fore paws; 2, if it tries to climb on the bar with its hind paws; 3, if it grabs the bar with its fore paws and one or two hind paws; 4, if it grabs the bar with all four paws and its tail; and 5, if it actively escapes from the bar and reaches one of the ends of the bar.

cerebella of NPC mice = assay: TUNEL immunofluorescence apoptosis analysis on cerebella; conditions: 50 mg/Kg daily intraperitoneally for 28 days, vs saline
[1] = tested on: cerebellar Purkinje neurons
Text: In all experiments discussed herein, “NPC mice” refers to mice deficient in the NPC1 protein or NPC1−/−. In FIG. 1, the cerebellums of 4 week old NPC mice and wild type mice are shown at a, b, g and h. The cerebellums of 6 week old NPC mice and wild type mice are shown at c, d, i and j. The cerebellums of 8 week old NPC mice and wild type mice are shown at e, f, k and l. The immunohistochemical procedures utilized were: anti-c-Abl, (K12; 1:500) and anti-p73 (H-79; 1:250) (Santa Cruz Biotech, Santa Cruz, Calif.), and anti-calbindin D-28K (1:1,000). Immunohistochemical procedures were carried out by means of histological stain on floating sections. Immunocytochemistry was performed using the avidin biotin horseradish peroxidase complex (ABC) method (Vector Laboratories, Burlingame, Calif.) and sections were mounted on gelatin pre-coated slides and air-dried, then dehydrated in graded ethanol and finally covered with Permount.
The immunohistochemical protocols used are the same as those described above relating to FIG. 1.
The following process was used for in situ apoptosis detection: the terminal deoxynucleotidyl transferase mediated deoxyuridine-biotin (dUTP) nick end labeling (TUNEL) was performed using the apoptosis detection kit purchased from Roche Molecular Biochemicals (Mannheim, Germany). The sections were first incubated in a blocking solution containing 3% H2O2 in methanol. Afterward, slices were incubated in 0.1% Triton X-100 in 0.1% sodium citrate over-night at RT to increase the permeability. After being washed twice in PBS, pH 7.4, the sections were immersed in the TUNEL reaction mixture, containing dUTP-fluorescein and terminal deoxynucleotidyl transferase (TdT) conjugated for 60 minutes at 37° C. in a dark, humid atmosphere. The process was terminated by washing the sections twice in PBS buffer. For the immunofluorescence (IF) sections slides were incubated overnight with rabbit polyclonal anti-calbindin D-28K (1:1,000; Chemicon International, Temecula, Calif.). […] Fluorescent images were captured with an Olympus BX51 microscope and analyzed with IMAGE pro-express.

## Cc1ccc(NC(=O)c2ccc(CN3CCN(C)CC3)cc2)cc1Nc1nccc(-c2cccnc2)n1 [imatinib mesylate, 4-(4-methylpiperazin-1-ylmethyl)-N-[4-methyl-3-((4-pyridin-3-yl)(pyrimidin-2-ylamino)phenyl]benzamide methanesulfonate]
NPC mice; NPC mice
  Hanging Test score: increased the scores
NPC mice; wild type mice
  effect on locomotor activity (Hanging Test): does not affect the locomotor activity
Cerebella of NPC mice
  apoptosis in cerebella (TUNEL): decreases apoptosis
  number of TUNEL positive cells: significantly less
[1]; NPC mice, 50 mg/Kg daily intraperitoneally for 28 days, immunofluorescence
  calbindin positive areas for Purkinje neurons: significant increase
[1]; NPC mice, 50 mg/Kg daily intraperitoneally for 28 days, vs saline
  death of Purkinje neurons (calbindin immunohistochemistry): reduces the death of Purkinje neurons
[1]; mouse, in vivo, ip, 50 mg/kg
  calbindin staining: does not affect the calbindin staining
